The source of these data is US20090054333A1, “Peptide inhibitors of cyclin-dependent kinase activity and uses thereof” (priority 2006, published 2009).

No end group written: not given here.

For this test, the target named is cdk2. As to the kind of experiment: in vitro cdk2 kinase assay with GST-fusion proteins, histone H1 substrate. In kind it is biochemical. Set-up: key to Kinase assay (inhibitory effect on cdk2 activity): P=positive; N=negative. The following applies: for Kinase assay (inhibitory effect on cdk2 activity): 0.1 μg GST-fusion protein, cdk2 immunoprecipitated from NIH/3T3; for inhibitory effect on cdk2 activity / histone H1 phosphorylation in vitro: GST-fusion protein added to cdk2 immunoprecipitate from NIH/3T3. The method, then:
Constructs preparation: A prokaryotic expression vector pGEX-2T (Stratagene Inc., La Jolla Calif.) and polymerase chain reaction (PCR) were used to generate chimeric Glutathione-S-Transferase constructs. The primers used by PCR to amplify the fragments that were subcloned in the pGEX-2T were derived from the 5′ and 3′ ends of different regions of the spacer domain of […]. The mammalian expression vector pEF6/V5-His TOPO (Invitrogen Corp, Carlsbad, Calif.) was used to generate the constructs pEF6/V5-His-spacer and pEF6/V5-His-310 that express the correspondent genes with a C-terminal V5 epitope. The spacer and the 310 fragments were PCR-amplified with the respective primers (Table 1) to generate 3′ends of the cDNAs without stop codons and were subsequently subcloned into pEF6/V5-His TOPO (Invitrogen Corp, Carlsbad, Calif.) according to the manufacturer's instructions to obtain cDNAs coding for C-terminal fusion proteins. All generated constructs were confirmed by automated sequencing. Information regarding the primers is available upon request.
GST Fusion protein preparation: XL1-Blue bacteria carrying the pGEX-2T vectors were grown to mid log phase and then induced to express protein by adding 0.25 mM of isopropyl-1-thio-β-D-galactopyranoside (IPTG, Roche Applied Science, Indianapolis, Ind.). The cultures were shaken for 4 h; bacteria were then pelleted and resuspended in NENT buffer (20 mM Tris pH 8, 100 mM NaCl, 1 mM EDTA, 0.5% NP-40). Cell suspensions were sonicated, pelleted and the supernatant collected. The remaining bacteria were then resuspended in NENT buffer plus 2% of N-Lauryl-Sarcosine, pelleted and the supernatants were collected again. The combined supernatants were incubated with Glutathione agarose (Amersham Biosciences, Piscataway, N.J.) overnight at 4° C. The agarose was then pelleted and washed three times in NENT buffer.
Kinase assays: Cell lysates from NIH/3T3 were prepared by resuspending pelleted cells in 500 μl of lysis buffer (50 mM Tris, 5 mM EDTA, 250 mM NaCl, 50 mM NaF, 0.1% Triton, 0.1 mM Na3VO4, plus protease inhibitors). An equal amount of protein for each fraction (100 μg) was immunoprecipitated with a polyclonal anti-cdk2 antibody (De Luca et al., 1997, J Biol Chem, 272, 20971-4). The complexes were pulled down with protein A-Sepharose and washed three times with lysis buffer and twice with lysis buffer containing 400 mM NaCl. The complexes were equilibrated in kinase assay buffer (20 mM HEPES pH 7.4, 10 mM MgAc, […], 1 mM DTT). In order to detect the in vitro inhibition of cdk2 activity, each sample was incubated with an equal amount (0.1 μg) of each pGEX-2T fusion protein, in a final volume of 20 μl of kinase buffer, using 5 μCi/sample of γ-ATP (Amersham Biosciences, Piscataway, N.J.) and 2 μg of Histone H1 for 30 minutes at 30° C. Kinase assays were repeated at least three times, giving an inter assay standard deviation within 10% after normalization for protein amount. In order to evaluate the in vivo inhibition of cdk2 activity, cdk2 was immunoprecipitated, as described above, from NIH/3T3 cells transiently transfected with 5 μg of pEF6/V5-spacer, pEF6/V5-Spa310 or the vector alone as a control. The immunocomplexes were split in two tubes. A half of each sample was assayed for cdk2 activity in a final volume of 20 μl of kinase buffer with 5 μCi/sample of γ-ATP and 2 μg of Histone H1 for 30 min. at 30° C.; the second one was tested in western blot analysis to confirm that all the samples contained the amount of cdk2 immunoprecipitated. Briefly the samples were separated into 12% SDS polyacrylamide gels (SDS-PAGE), and then transferred into a nitrocellulose membrane (Schleicher & Schuell, Germany). The membrane was blocked with 5% non-fat dry milk in 1×TBST and incubated with the polyclonal anti-cdk2 antibody described above. […]

For “Spa1: pRb2/p130 spacer fragment, amino acids 616-642, 27 amino acids (VPTCEEVMPPQNLERADEICIAGSPLT; cysteine pairing not given here; also: fused to dimerising Fc or GST)”, the “Kinase assay (inhibitory effect on cdk2 activity)” value is “N” and the “inhibitory effect on cdk2 activity / histone H1 phosphorylation in vitro” value is reported as “little or no inhibitory effect”. As for “Spa3: pRb2/p130 spacer fragment, amino acids 663-711, 49 amino acids (PTTLYDRYSSPPASTTRRRLFVENDSPSDGGTPGRMPPQPLVNAVPVQN; also: fused to dimerising Fc or GST)”, the “Kinase assay (inhibitory effect on cdk2 activity)” value is listed as “N” and the “inhibitory effect on cdk2 activity / histone H1 phosphorylation in vitro” value is given as “little or no inhibitory effect”.

As to “Spa311: pRb2/p130 amino acids 641 to 682 (42 amino acids long), SEQ ID NO:2 (LTPRRVTEVRADTGGLGRSITSPTTLYDRYSSPPASTTRRRL; listed as Homo sapiens)”, the “Kinase assay (inhibitory effect on cdk2 activity)” value is recorded as “P”. On to “Spa12: pRb2/p130 spacer fragment, amino acids 616-666, 51 amino acids (VPTCEEVMPPQNLERADEICIAGSPLTPRRVTEVRADTGGLGRSITSPTTL; cysteine pairing not given here; also: fused to dimerising Fc or GST)”, for which the “Kinase assay (inhibitory effect on cdk2 activity)” value is “N”.

As to “Spa72: Table 1 construct: pRb2/p130 spacer fragment, amino acids 652-711, 60 amino acids (DTGGLGRSITSPTTLYDRYSSPPASTTRRRLFVENDSPSDGGTPGRMPPQPLVNAVPVQN; also: fused to dimerising Fc or GST)”, the “Kinase assay (inhibitory effect on cdk2 activity)” value is reported as “N”. In the case of “Spa2: pRb2/p130 spacer fragment, amino acids 641-666, 26 amino acids (LTPRRVTEVRADTGGLGRSITSPTTL; UniProt Q08999 641-666, looked up, fragment)”, the “Kinase assay (inhibitory effect on cdk2 activity)” value is on record as “N” and the “inhibitory effect on cdk2 activity / histone H1 phosphorylation in vitro” value is “little or no inhibitory effect”. For “Spa312: pRb2/p130 spacer fragment, amino acids 641-673, 33 amino acids (LTPRRVTEVRADTGGLGRSITSPTTLYDRYSSP; also: fused to dimerising Fc or GST)”, the “Kinase assay (inhibitory effect on cdk2 activity)” value is recorded as “N”.

With “Spb: pRb2/p130 spacer fragment, amino acids 712-754, 43 amino acids (VSGETVSVTPVPGQTLVTMATATVTANNGQTVTIPVQGIANEN; also: fused to dimerising Fc or GST)”, the “Kinase assay (inhibitory effect on cdk2 activity)” value is “N”.

B1: Spa: pRb2/p130 spacer fragment, amino acids 616-711, 96 amino acids (protein)
chain: VPTCEEVMPPQNLERADEICIAGSPLTPRRVTEVRADTGGLGRSITSPTTLYDRYSSPPASTTRRRLFVENDSPSDGGTPGRMPPQPLVNAVPVQN
modifications: left off: a dimerising Fc or GST
Regarding B1, the “Kinase assay (inhibitory effect on cdk2 activity)” value is “P” and the “inhibitory effect on cdk2 activity / histone H1 phosphorylation in vitro” value is “inhibitory effect on histone H1 phosphorylation”.

B2: Spa38: pRb2/p130 amino acids 641 to 702 (62 amino acids long), SEQ ID NO:1 (protein, listed as Homo sapiens)
chain: LTPRRVTEVRADTGGLGRSITSPTTLYDRYSSPPASTTRRRLFVENDSPSDGGTPGRMPPQP
With B2, the “Kinase assay (inhibitory effect on cdk2 activity)” value was “P”.

B3: Spc: pRb2/p130 spacer fragment, amino acids 755-828, 73 amino acids (protein)
chain: GGITFFPVQVNVGGQAQAVTGSIQPLSAQALAGSLSSQQVTGTTLQVPGQVAIQQISPGGQQQKQGQSVTSSSN
modifications: left off: a dimerising Fc or GST
notes: pRb2/p130 spacer fragment, amino acids 755-828, 73 amino acids
Take B3: the “Kinase assay (inhibitory effect on cdk2 activity)” value is listed as “N”.

B4: Spa23: Table 1 construct: pRb2/p130 spacer fragment, amino acids 641-711, 71 amino acids (protein)
chain: LTPRRVTEVRADTGGLGRSITSPTTLYDRYSSPPASTTRRRLFVENDSPSDGGTPGRMPPQPLVNAVPVQN
modifications: left off: a dimerising Fc or GST
As to B4, the “Kinase assay (inhibitory effect on cdk2 activity)” value was “P” and the “inhibitory effect on cdk2 activity / histone H1 phosphorylation in vitro” value was “able to inhibit cdk2 activity”.
